According to patent publication US20220135591A1, “HETEROCYCLIC COMPOUNDS AS INHIBITORS OF MONOACYLGLYCEROL LIPASE (MAGL)” (Hoffmann-La Roche Inc., priority 2019, published 2022):

biological target: T1, MAGL (Homo sapiens, UniProt Q99685); test: 2-AG assay: MAGL inhibitory activity by hydrolysis of 2-arachidonoylglycerol to arachidonic acid, mass spectrometry; assay type: biochemical; conditions: 2-AG assay (values marked [b])
T1 sequence (Q99685 1-303): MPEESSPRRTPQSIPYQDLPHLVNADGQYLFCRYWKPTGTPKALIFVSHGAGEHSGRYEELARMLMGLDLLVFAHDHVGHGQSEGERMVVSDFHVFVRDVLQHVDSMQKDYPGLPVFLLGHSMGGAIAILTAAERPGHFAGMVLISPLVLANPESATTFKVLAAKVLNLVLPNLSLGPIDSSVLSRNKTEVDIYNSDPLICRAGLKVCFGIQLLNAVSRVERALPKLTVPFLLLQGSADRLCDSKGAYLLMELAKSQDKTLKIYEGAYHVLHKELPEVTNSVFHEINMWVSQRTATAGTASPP
Method in brief: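 Hydrolysis of 8 μM 2-arachidonoylglycerol by […] was run for 30 min at RT after a 15 min compound preincubation, in Tris/EDTA/Tween buffer. Test compounds spanned […]. The product was measured by online SPE-MS/MS (transitions 303.1→259.1 and 311.1→267.0), and activity was derived from the arachidonic acid/d8-arachidonic acid signal ratio.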

Structure (SMILES) | IC50 [nM]
CC(C)(C)Cn1nnc(-c2ncc(C(=O)N3CCN(c4nc5nc(Cl)ccc5o4)CC3)cc2F)n1 [Example 306, [4-(5-chlorooxazolo[4,5-b]pyridin-2-yl)piperazin-1-yl]-[6-[2-(2,2-dimethylpropyl)tetrazol-5-yl]-5-fluoro-3-pyridyl]methanone] | 363
Cc1ccc2oc(N3CCN(C(=O)c4cnc(-c5nnn(CC(C)(C)C)n5)c(F)c4)CC3)nc2n1 [Example 307, [6-[2-(2,2-dimethylpropyl)tetrazol-5-yl]-5-fluoro-3-pyridyl]-[4-(5-methyloxazolo[4,5-b]pyridin-2-yl)piperazin-1-yl]methanone] | 1130
Cc1cc(C(=O)N2CCN(c3nc4nc(Cl)ccc4o3)CC2)cnc1-c1nnn(CC(C)(C)C)n1 [Example 308, [4-(5-chlorooxazolo[4,5-b]pyridin-2-yl)piperazin-1-yl]-[6-[2-(2,2-dimethylpropyl)tetrazol-5-yl]-5-methyl-3-pyridyl]methanone] | 111
Cc1ccc2oc(N3CCN(C(=O)c4cnc(-c5nnn(CC(C)(C)C)n5)c(C)c4)CC3)nc2n1 [Example 309, [6-[2-(2,2-dimethylpropyl)tetrazol-5-yl]-5-methyl-3-pyridyl]-[4-(5-methyloxazolo[4,5-b]pyridin-2-yl)piperazin-1-yl]methanone] | 51
COc1cc(C(=O)N2CCN(c3nc4nc(C)ccc4o3)CC2)cnc1-c1nnn(CC(C)(C)C)n1 [Example 310, [6-[2-(2,2-dimethylpropyl)tetrazol-5-yl]-5-methoxy-3-pyridyl]-[4-(5-methyloxazolo[4,5-b]pyridin-2-yl)piperazin-1-yl]methanone] | 167
COc1cc(C(=O)N2CCN(c3nc4nc(Cl)ccc4o3)CC2)cnc1-c1nnn(CC(C)(C)C)n1 [Example 311, [4-(5-chlorooxazolo[4,5-b]pyridin-2-yl)piperazin-1-yl]-[6-[2-(2,2-dimethylpropyl)tetrazol-5-yl]-5-methoxy-3-pyridyl]methanone] | 61

biological target: T2, MAGL (recombinant wild-type) (Homo sapiens, UniProt Q99685); test: 4-NPA assay: MAGL inhibitory activity by hydrolysis of 4-nitrophenylacetate, absorbance at 405 nm; assay type: biochemical; conditions: 4-NPA assay (values without footnote [b])
T2 sequence (Q99685 1-303): T1 sequence (Q99685 1-303)
Method: Compounds were profiled for MAGL inhibitory activity by measuring the enzymatic activity of MAGL by following the hydrolysis of 4-nitrophenylacetate resulting in 4-nitrophenol, which absorbs at 405-412 nm (G. G. Muccioli, G. Labar, D. M. Lambert, Chem. Bio. Chem. 2008, 9, 2704-2710). This assay is hereinafter abbreviated “4-NPA assay”.
The assay was carried out in 384 well assay plates (black with clear bottom, non-binding surface treated, Corning Ref. 3655) in a total volume of 40 μL. Compound dilutions were made in 100% DMSO (VWR Chemicals 23500.297) in a polypropylene plate in 3-fold dilution steps to give a final concentration range in the assay from 25 μM to 1.7 nM. 1 μL compound dilutions (100% DMSO) were added to 19 μL MAGL (recombinant wild-type) in assay buffer (50 mM TRIS (GIBCO, 15567-027), 1 mM EDTA (Fluka, 03690-100 mL)). The plate was shaked for 1 min at 2000 rpm (Variomag Teleshake) and then incubated for 15 min at RT. To start the reaction, 20 μL 4-Nitrophenlyacetate (Sigma N-8130) in assay buffer with 6% EtOH was added. The final concentrations in the assay were 1 nM MAGL and 300 μM 4-Nitrophenylacetate. After shaking (1 min, 2000 rpm) and 5 min incubation at RT, the absorbance at 405 nm was measured for a first time (Molecular Devices, SpectraMax Paradigm). A second measurement was then done after incubation for 80 min at RT. From the two measurements, the slope was calculated by subtracting the first from the second measurement.

Structure (SMILES) | IC50 [nM]
Cc1ccc2oc(N3CCN(C(=O)c4ccc5nc(-c6ccccc6)oc5c4)CC3)nc2n1 [Example 1, (4-(5-Methyloxazolo[4,5-b]pyridin-2-yl)piperazin-1-yl)(2-phenylbenzo[d]oxazol-6-yl)methanone] | 115
O=C(c1ccc2nc(-c3ccccc3)oc2c1)N1CCN(c2nc3ncccc3o2)CC1 [Example 2, (4-(oxazolo[4,5-b]pyridin-2-yl)piperazin-1-yl)(2-phenylbenzo[d]oxazol-6-yl)methanone] | 194
Cc1ccc2oc(N3CCN(C(=O)c4ccc5nc(N6CCCC6)oc5c4)CC3)nc2n1 [Example 3, (4-(5-methyloxazolo[4,5-b]pyridin-2-yl)piperazin-1-yl)(2-(pyrrolidin-1-yl)benzo[d]oxazol-6-yl)methanone] | 2330
Cc1ccc2oc(N3CCN(C(=O)c4ccc(-c5noc(C(C)(C)CO)n5)cc4)CC3)nc2n1 [Example 7, (4-(5-(1-hydroxy-2-methylpropan-2-yl)-1,2,4-oxadiazol-3-yl)phenyl)(4-(5-methyloxazolo[4,5-b]pyridin-2-yl)piperazin-1-yl)methanone] | 262
CC(C)(C)c1nc(-c2ccc(C(=O)N3CCN(c4nc5nccc(Cl)c5o4)CC3)cc2)no1 [Example 8, (4-(5-(tert-butyl)-1,2,4-oxadiazol-3-yl)phenyl)(4-(7-chlorooxazolo[4,5-b]pyridin-2-yl)piperazin-1-yl)methanone] | 247
Cc1ccc2oc(N3CCN(C(=O)c4ccc(-c5noc(C(C)(C)CF)n5)cc4)CC3)nc2n1 [Example 11, (4-(5-(1-fluoro-2-methylpropan-2-yl)-1,2,4-oxadiazol-3-yl)phenyl)(4-(5-methyloxazolo[4,5-b]pyridin-2-yl)piperazin-1-yl)methanone] | 49
CC(C)(C)Cc1nc(-c2ccc(C(=O)N3CCN(c4nc5ncccc5o4)CC3)cc2)no1 [Example 13, (4-(5-neopentyl-1,2,4-oxadiazol-3-yl)phenyl)(4-(oxazolo[4,5-b]pyridin-2-yl)piperazin-1-yl)methanone] | 37
CC(C)(C)c1nc(-c2ccc(C(=O)N3CCN(c4nc5ncccc5o4)CC3)cc2)no1 [Example 14, (4-(5-(tert-butyl)-1,2,4-oxadiazol-3-yl)phenyl)(4-(oxazolo[4,5-b]pyridin-2-yl)piperazin-1-yl)methanone] | 128
CCC(CC)c1nc2ccc(C(=O)N3CCN(c4nc5nc(C)ccc5o4)CC3)cc2o1 [Example 15, [2-(1-ethylpropyl)-1,3-benzoxazol-6-yl]-[4-(5-methyloxazolo[4,5-b]pyridin-2-yl)piperazin-1-yl]methanone] | 352
Cc1ccc2oc(N3CCN(C(=O)c4ccc5nc(C6CCCCC6)oc5c4)CC3)nc2n1 [Example 17, (2-cyclohexyl-1,3-benzoxazol-6-yl)-[4-(5-methyloxazolo[4,5-b]pyridin-2-yl)piperazin-1-yl]methanone] | 36
Cc1ccc2oc(N3CCN(C(=O)c4ccc5nc(CCC(F)(F)F)oc5c4)CC3)nc2n1 [Example 18, [4-(5-methyloxazolo[4,5-b]pyridin-2-yl)piperazin-1-yl]-[2-(3,3,3-trifluoropropyl)-1,3-benzoxazol-6-yl]methanone] | 434
CC/C=C/c1nc2ccc(C(=O)N3CCN(c4nc5nc(C)ccc5o4)CC3)cc2o1 [Example 21, [2-[(E)-but-1-enyl]-1,3-benzoxazol-6-yl]-[4-(5-methyloxazolo[4,5-b]pyridin-2-yl)piperazin-1-yl]methanone] | 184

Now from value to compound:

IC50 [nM] | Structure (SMILES)
27 | Cc1ccc2oc(N3CCN(C(=O)c4ccc(-c5noc(C(C)(C)C)n5)cc4)CC3)nc2n1 [Example 4, (4-(5-(tert-butyl)-1,2,4-oxadiazol-3-yl)phenyl)(4-(5-methyloxazolo[4,5-b]pyridin-2-yl)piperazin-1-yl)methanone]
9 | Cc1ccc2oc(N3CCN(C(=O)c4ccc(-c5noc(CC(C)(C)C)n5)cc4)CC3)nc2n1 [Example 5, (4-(5-methyloxazolo[4,5-b]pyridin-2-yl)piperazin-1-yl)(4-(5-neopentyl-1,2,4-oxadiazol-3-yl)phenyl)methanone]
25 | Cc1ccc2oc(N3CCN(C(=O)c4ccc5nc(N6CC7(CCCC7)C6)oc5c4)CC3)nc2n1 [Example 6, (2-(2-azaspiro[3.4]octan-2-yl)benzo[d]oxazol-6-yl)(4-(5-methyloxazolo[4,5-b]pyridin-2-yl)piperazin-1-yl)methanone]
27 | CC(C)(C)Cc1nc(-c2ccc(C(=O)N3CCN(c4nc5nccc(Cl)c5o4)CC3)cc2)no1 [Example 9, (4-(7-chlorooxazolo[4,5-b]pyridin-2-yl)piperazin-1-yl)(4-(5-neopentyl-1,2,4-oxadiazol-3-yl)phenyl)methanone]
2 | CC(C)(C)Cc1nc(-c2ccc(C(=O)N3CCN(c4nc5nc(Cl)ccc5o4)CC3)cc2)no1 [Example 10, (4-(5-chlorooxazolo[4,5-b]pyridin-2-yl)piperazin-1-yl)(4-(5-neopentyl-1,2,4-oxadiazol-3-yl)phenyl)methanone]
8 | CC(C)(C)c1nc(-c2ccc(C(=O)N3CCN(c4nc5nc(Cl)ccc5o4)CC3)cc2)no1 [Example 12, (4-(5-(tert-butyl)-1,2,4-oxadiazol-3-yl)phenyl)(4-(5-chlorooxazolo[4,5-b]pyridin-2-yl)piperazin-1-yl)methanone]
10 | CC(C)(C)Cc1nnc(-c2ccc(C(=O)N3CCN(c4nc5nc(Cl)ccc5o4)CC3)cc2)o1 [Example 16, [4-(5-chlorooxazolo[4,5-b]pyridin-2-yl)piperazin-1-yl]-[4-[5-(2,2-dimethylpropyl)-1,3,4-oxadiazol-2-yl]phenyl]methanone]
2 | CC(C)(C)Cn1cc(-c2ccc(C(=O)N3CCN(c4nc5nc(Cl)ccc5o4)CC3)cc2)cn1 [Example 19, [4-(5-chlorooxazolo[4,5-b]pyridin-2-yl)piperazin-1-yl]-[4-[1-(2,2-dimethylpropyl)pyrazol-4-yl]phenyl]methanone]
19 | CC(C)(CF)c1nc(-c2ccc(C(=O)N3CCN(c4nc5nc(Cl)ccc5o4)CC3)cc2)no1 [Example 20, (4-(5-chlorooxazolo[4,5-b]pyridin-2-yl)piperazin-1-yl)(4-(5-(1-fluoro-2-methylpropan-2-yl)-1,2,4-oxadiazol-3-yl)phenyl)methanone]
